Columns and labels:
IR E697A = assay: Auto-phosphorylation of IR in 293FT cells expressing IR E697A; format: cell-based, human
Description: (§1) For the activation assay, the short isoform of human IR in pCS2-MYC was used as described previously[20],[49]. Plasmid transfections into 293FT cells were performed with Lipofectamin^TM 2000 (Invitrogen).
(§2) The cells were incubated with the lysis buffer B [50 mM Hepes pH 7.4, 150 mM NaCl, 10% Glycerol, 1% Triton X-100, 1 mM EDTA, 100 mM sodium fluoride, 2 mM sodium orthovanadate, 20 mM sodium pyrophosphate, 0.5 mM dithiothreitol (DTT), 2 mM phenylmethylsulfonyl fluoride (PMSF)] supplemented with cOmplete Protease Inhibitor Cocktail (Roche), PhosSTOP (Sigma), and 25 U/ml turbo nuclease (Accelagen) on ice for 1 h. After centrifuging at 20,817×g at 4 °C for 10 min, the concentrations of cell lysate were measured using Micro BCA Protein Assay Kit (Thermo Scientific). About 50–60 μg total proteins were analyzed by SDS-PAGE and quantitative Western blotting. […] For quantitative western blots, anti-rabbit immunoglobulin G (IgG) (H + L) (WB, 1:5000; Dylight 800 conjugates, Cat. #5151) and anti-mouse IgG (H + L) (WB, 1:5000; Dylight 680 conjugates, Cat. #5470) (Cell Signaling) were used as secondary antibodies. […]

blood glucose [1] = assay: Oral glucose tolerance test after chronic treatment; format: in vivo, mouse; set-up: Mean Diff. of blood glucose (OGTT) / blood glucose (OGTT) / Supplementary Figure 10d (area under the OGTT glucose curve): unit not given here; settings: for Mean Diff. of blood glucose (OGTT), PBS vs. treatment: PBS minus treatment, Tukey's multiple comparisons test; for Mean Diff. of blood glucose (OGTT): Dunnett's multiple comparisons test; for Supplementary Figure 10d (area under the OGTT glucose curve): time 0-120
Description: For the oral glucose tolerance test, mice were fasted for 6 h and their blood glucose levels (T = 0) were measured with tail bleeding using a glucometer (AlphaTRAK). After then, glucose (2 g/kg body weight) was administered by oral gavage. Blood glucose levels were measured at the indicated time points after glucose administration. For Fig. S10f, 2 months old male mice were fasted for 14 h. […] One hour later, livers were collected.

IR F701A/F705A = assay: Auto-phosphorylation of IR in 293FT cells expressing IR F701A/F705A; format: cell-based, human
Description: as §1, §2

IR R14W = assay: Auto-phosphorylation of IR in 293FT cells expressing IR R14W; format: cell-based, human
Description: as §1, §2

IR F96A = assay: Auto-phosphorylation of IR in 293FT cells expressing IR F96A; format: cell-based, human; settings: 10 nM, 10 min
Description: as §1, §2

IR = IR signaling (pY IR, pAKT, pERK) in primary mouse hepatocytes (Fig. S9); format: cell-based
Description: Primary hepatocytes were isolated from 2-month-old male mice with a standard two-step collagenase perfusion procedure as described earlier with some modifications[24],[48],[49]. […] After 1–2 s upon the appearance of white spots in the liver, we cut the portal vein with scissors to wash out blood, and then the liver was perfused with 30 ml of Liver Digest Medium (Thermo Scientific, Cat. #17703034). The dissected liver was gently washed with low-glucose DMEM and transferred to a sterile culture dish containing 15 ml Liver Digest Medium. The isolated liver cells were filtered through the 70 μm cell strainer into a 50 ml tube. After centrifuging at 50×g for 5 min at 4 °C, cells were washed with cold low-glucose DMEM three times. […] After 2 h, the medium was changed to serum-free low-glucose DMEM.
as §2

IR D707A = assay: Auto-phosphorylation of IR in 293FT cells expressing IR D707A; format: cell-based, human
Description: as §1, §2

blood glucose [2] = assay: Insulin tolerance test; format: in vivo, mouse; settings: i.p.; Humulin 6 nmol/kg, S597, S20D, W6A, F27A 9 nmol/kg, N20 27 nmol/kg; male mice
Description: Briefly, 2–3 months old male mice were fasted for 2 h and their blood glucose levels (T = 0) were measured with tail bleeding using a glucometer (AlphaTRAK). After then, mice were injected intraperitoneally with Humulin (6 nmol/kg body weight), S597 (9 nmol/kg), S597-S20D (9 nmol/kg), S597-W6A (9 nmol/kg), S597-F27A (9 nmol/kg), or S597-N20 (27 nmol/kg), and their blood glucose levels were measured at the indicated time points after injection.

insulin: native IR ligand used as comparator; Humulin in the in vivo tests
IR activation (IR E697A): largely diminished IR activation by insulin
Mean Diff. of blood glucose (OGTT), PBS vs. treatment (blood glucose [1]; Row 1 (time 0)): -8
Mean Diff. of blood glucose (OGTT) (blood glucose [1]; Row 1 vs. Row 2 (time 0 minus time 15)): -254.8
Mean Diff. of blood glucose (OGTT) (blood glucose [1]; Row 1 vs. Row 3 (time 0 minus time 30)): -168.8
Mean Diff. of blood glucose (OGTT) (blood glucose [1]; Row 1 vs. Row 4 (time 0 minus time 60)): -60
Mean Diff. of blood glucose (OGTT) (blood glucose [1]; Row 1 vs. Row 5 (time 0 minus time 120)): -35.2
Mean Diff. of blood glucose (OGTT), PBS vs. treatment (blood glucose [1]; Row 2 (time 15)): -66.2
Mean Diff. of blood glucose (OGTT), PBS vs. treatment (blood glucose [1]; Row 3 (time 30)): -9
Mean Diff. of blood glucose (OGTT), PBS vs. treatment (blood glucose [1]; Row 4 (time 60)): 1
Mean Diff. of blood glucose (OGTT), PBS vs. treatment (blood glucose [1]; Row 5 (time 120)): -9.8
Supplementary Figure 10d (area under the OGTT glucose curve) (blood glucose [1]; mouse 1): 37808
Supplementary Figure 10d (area under the OGTT glucose curve) (blood glucose [1]; mouse 2): 37043
Supplementary Figure 10d (area under the OGTT glucose curve) (blood glucose [1]; mouse 3): 31785
Supplementary Figure 10d (area under the OGTT glucose curve) (blood glucose [1]; mouse 4): 39735
Supplementary Figure 10d (area under the OGTT glucose curve) (blood glucose [1]; mouse 5): 46950
blood glucose (OGTT) (blood glucose [1]; time 0, mouse 1): 197
blood glucose (OGTT) (blood glucose [1]; time 0, mouse 2): 199
blood glucose (OGTT) (blood glucose [1]; time 0, mouse 3): 224
blood glucose (OGTT) (blood glucose [1]; time 0, mouse 4): 245
blood glucose (OGTT) (blood glucose [1]; time 0, mouse 5): 272
blood glucose (OGTT) (blood glucose [1]; time 15, mouse 1): 530
blood glucose (OGTT) (blood glucose [1]; time 15, mouse 2): 406
blood glucose (OGTT) (blood glucose [1]; time 15, mouse 3): 488
blood glucose (OGTT) (blood glucose [1]; time 15, mouse 4): 463
blood glucose (OGTT) (blood glucose [1]; time 15, mouse 5): 524
blood glucose (OGTT) (blood glucose [1]; time 30, mouse 1): 434
blood glucose (OGTT) (blood glucose [1]; time 30, mouse 2): 354
blood glucose (OGTT) (blood glucose [1]; time 30, mouse 3): 258
blood glucose (OGTT) (blood glucose [1]; time 30, mouse 4): 409
blood glucose (OGTT) (blood glucose [1]; time 30, mouse 5): 526
blood glucose (OGTT) (blood glucose [1]; time 60, mouse 1): 273
blood glucose (OGTT) (blood glucose [1]; time 60, mouse 2): 303
blood glucose (OGTT) (blood glucose [1]; time 60, mouse 3): 206
blood glucose (OGTT) (blood glucose [1]; time 60, mouse 4): 300
blood glucose (OGTT) (blood glucose [1]; time 60, mouse 5): 355
blood glucose (OGTT) (blood glucose [1]; time 120, mouse 1): 211
blood glucose (OGTT) (blood glucose [1]; time 120, mouse 2): 262
blood glucose (OGTT) (blood glucose [1]; time 120, mouse 3): 257
blood glucose (OGTT) (blood glucose [1]; time 120, mouse 4): 275
blood glucose (OGTT) (blood glucose [1]; time 120, mouse 5): 308
IR activation (IR F701A/F705A): reduced insulin-dependent IR activation
IR activation (IR R14W): reduced insulin-dependent IR activation
IR activation (IR F96A): defective insulin-dependent activation
phosphorylation of AKT, primary hepatocytes (IR): increased the levels of pY IR, pAKT, and pERK similarly
phosphorylation of ERK, primary hepatocytes (IR): increased the levels of pY IR, pAKT, and pERK similarly
phosphorylation of IR, primary hepatocytes (IR): increased the levels of pY IR, pAKT, and pERK similarly
IR activation (IR D707A): reduced insulin-dependent IR activation
blood glucose lowering (blood glucose [2]): significantly reduced

— publication PMC9508239 (Nature Communications, 2022)
